# Laboratory results taken from patent US8507557B2, “Potentiators of insulin secretion” (Wisconsin Alumni Research Foundation, priority 2003, dated 2013).
# Key:
# [1] = tested on: hyperexcitable Newgard Ins-1 cells; conditions: low (3 mM) or high (15 mM) glucose; 2 hours at 3 mM glucose with compound, then 2 hours
# Description: The cells were incubated at 3 mM glucose with the indicated concentrations of either αKG or the DPD analog for 2 hours. Then, the cells were incubated for an additional 2 hours in either 3 or 15 mM glucose.
# Ins-1 cell = Ins-1 cell insulin secretion assay, preliminary SAR study in high glucose (FIG. 1); format: cell-based, rat; conditions: presence of high glucose; Ins-1 cell assay
# Description: The ability of various structurally-related compounds to alter insulin secretion in the presence of high glucose was tested in a preliminary structure-activity relationship (SAR) study to elucidate the molecular structures relevant to the insulin segretagogue potential of DPD and other αKG analogs. The compounds tested, shown in FIG. 1, are presented in order of decreasing ability to secrete insulin in an Ins-1 cell assay of the type described below in the Working Example. Each tested compound is commercially available and all were purchased from Sigma-Aldrich. Each compound contained two carboxylate groups. Variables evaluated in this study included the relative position of the carboxylate groups to one another, as well as the presence or absence of a nitrogen or sulfur group, additional R-groups, and esterified carboxy groups.
# rat Ins-1 beta cell line = conditions: rat Ins-1 cells; effect not as dramatic as in responsive cell line
# pancreatic β cells = test: Insulin secretion from pancreatic β cells with Ca2+ channel, α2-adrenergic and KATP modulators; conditions: for effect on insulin secretion elicited by glyburide: in the presence of glyburide; for effect on insulin secretion caused by glucose, KIC, αKG or DPD: α2-adrenergic agonists
# Description: The physiological relevance of insulin secretion from pancreatic β cells elicited by αKG was evaluated.
# Possible targets for the segretagogue action of αKG were examined by reevaluating targets implicated for KIC-dependent increases in insulin secretion, since the effects of KIC are likely exerted through transamination that yields αKG. […] To biochemically test this hypothesis the inventors used known drugs to modulate KATP and then determined whether αKG and DPD could still affect insulin secretion.
# β cells = conditions: without affecting glucose metabolism; cited from earlier work
# [2] = as reported in Diabetes Care 25:1271 (2002); cited from earlier work
smiles,measurement,setting,value
"CCOC(=O)c1ccnc(C(=O)OCC)c1 [DPD, 2,4-diethyl pyridine dicarboxylate]",effect upon insulin secretion (fractional insulin release),[1],marked positive effect
same,insulin secretion,Ins-1 cell,~14%
same,effect on insulin secretion (fractional insulin release),rat Ins-1 beta cell line,increase in insulin secretion
same,potency on insulin secretion relative to αKG,pancreatic β cells,extremely potent relative to αKG
same,effect on insulin secretion elicited by glyburide,pancreatic β cells,augmented
CC1=NS(=O)(=O)c2cc(Cl)ccc2N1 [Diazoxide],"effect on ability of αKG, DPD and KIC to promote insulin release",pancreatic β cells; KATP agonist,completely suppresses
"CC(C)CC(=O)C(=O)O [KIC, α-ketoisocaproic acid]",effect on insulin secretion elicited by glyburide,pancreatic β cells,augmented
Clc1cccc(Cl)c1N=C1NCCN1 [clonidine],"effect on insulin secretion caused by glucose, KIC, αKG or DPD",pancreatic β cells,greatly suppressed
CNC[C@H](O)c1ccc(O)c(O)c1 [epinephrine],"effect on insulin secretion caused by glucose, KIC, αKG or DPD",pancreatic β cells,greatly suppressed
O=c1c(-c2ccc(O)cc2)coc2cc(O)cc(O)c12 [genistein],effect on KIC-stimulated insulin release,β cells,inhibited
Cc1cnc(C(=O)NCCc2ccc(S(=O)(=O)NC(=O)NC3CCCCC3)cc2)cn1 [glipizide],increase in insulin,[2],54%
COc1ccc(Cl)cc1C(=O)NCCc1ccc(S(=O)(=O)NC(=O)NC2CCCCC2)cc1 [glyburide],insulin secretion elicited,pancreatic β cells; KATP antagonist,elicits an insulin secretion
CCOc1cc(CC(=O)N[C@@H](CC(C)C)c2ccccc2N2CCCCC2)ccc1C(=O)O [repaglinide],increase in insulin,[2],47%
N#C/C(=C\c1ccc(O)c(O)c1)C(N)=S [tyrphostin A47],effect on KIC-stimulated insulin release,β cells,inhibited
"O=C(O)CCC(=O)C(=O)O [αKG, α-ketoglutarate]",effect on insulin secretion elicited by glyburide,pancreatic β cells,augmented
